Assay results published in article PMC5967236 (Angewandte Chemie (International ed. in English), 2017).

What was measured:
[1] = system: human AML lines (EOL-1, MOLM-13, MV4;11); test: viability of human AML lines, 7 days; assay type: cell-based
MM.1S line = test: activity in MM.1S line; assay type: cell-based; conditions: multiple myelome derived line
MOLM-13 = test: viability of MOLM-13; assay type: cell-based, human; conditions: MOLM-13 transduced with wild type BRD9
[2] = system: IKZF family of linage specific transcription factors; test: activity against IKZF family transcription factors; assay type: cell-based
BRD4 = BRD4 (Homo sapiens, UniProt O60885); test: BRD4 immunoblot in MOLM-13 cells; conditions: MOLM-13, 4hr, western blot
[3] = system: all cellular proteins in MOLM-13 cells; test: whole-cell lysate proteomics; assay type: cell-based, human; conditions: 100 nM for 2 hours
BRD7 = target: T1, BRD7 (Homo sapiens, UniProt Q9NPI1); test: BRD7 immunoblot in MOLM-13 cells; conditions: MOLM-13, 4hr, western blot
T1 sequence (Q9NPI1 1-651): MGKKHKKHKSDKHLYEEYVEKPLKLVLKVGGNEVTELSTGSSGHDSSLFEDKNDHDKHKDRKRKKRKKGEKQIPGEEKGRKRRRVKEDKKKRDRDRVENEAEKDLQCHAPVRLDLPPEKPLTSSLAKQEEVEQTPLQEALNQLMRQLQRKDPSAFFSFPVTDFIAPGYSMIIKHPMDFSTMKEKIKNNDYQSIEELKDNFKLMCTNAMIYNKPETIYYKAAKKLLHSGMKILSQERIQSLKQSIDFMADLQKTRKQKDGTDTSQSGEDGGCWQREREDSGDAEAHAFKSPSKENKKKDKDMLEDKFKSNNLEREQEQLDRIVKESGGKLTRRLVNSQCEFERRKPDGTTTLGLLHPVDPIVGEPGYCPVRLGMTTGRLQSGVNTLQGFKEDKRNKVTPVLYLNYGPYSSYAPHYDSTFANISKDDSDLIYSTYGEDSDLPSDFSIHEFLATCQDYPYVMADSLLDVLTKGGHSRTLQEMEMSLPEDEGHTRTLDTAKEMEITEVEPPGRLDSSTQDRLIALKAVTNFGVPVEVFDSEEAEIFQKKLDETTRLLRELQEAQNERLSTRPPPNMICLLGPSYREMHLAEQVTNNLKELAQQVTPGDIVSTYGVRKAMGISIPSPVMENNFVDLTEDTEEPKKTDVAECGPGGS

[4] = system: IKZF family of linage specific transcription factors; conditions: cited from earlier work

| Structure (SMILES) | anti-proliferative effect ([1]; EOL-1, MOLM-13, MV4;11, 7 days) | half-maximal anti-proliferative concentration ([1]; human AML lines) | activity in MM.1S (MM.1S line) | sensitivity with viral expression of exogenous wild type BRD9 (MOLM-13) | activity against IKZF family [2] | off target degradation activity on BRD4 (BRD4) | change in BRD4 or BRD7 levels [3] | difference in levels of other proteins (99% of proteins) [3] | off target degradation activity on BRD7 (BRD7) | activity against IKZF family, earlier report [4] |
| --- | --- | --- | --- | --- | --- | --- | --- | --- | --- | --- |
| COc1cc(-c2cn(C)c(=O)c3cnccc23)cc(OC)c1CN(C)CC(=O)NCCOCCOCCNc1cccc2c1C(=O)N(C1CCC(=O)NC1=O)C2=O (stereo not shown) [dBRD9] | potent anti-proliferative effect | low nanomolar | dBRD9 sensitive | shifted sensitivity, but to an intermediate degree | retain activity | not detectable | no significant change | less than 0.30 fold | not detectable |  |
| Cc1sc2c(c1C)C(c1ccc(Cl)cc1)=N[C@@H](CC(=O)NCCCCNC(=O)COc1cccc3c1C(=O)N(C1CCC(=O)NC1=O)C3=O)c1nnc(C)n1-2 (stereo partly shown) [dBET-1] |  |  |  |  |  |  |  |  |  | not previously observed |
